Patent EP0041644B1 (priority 1980, dated 1981)

Legend:
[1] = tested on: L1210 Leukemia; experiment: L1210 Leukemia - Test 1 (survival of tumor-bearing mice); assay type: in vivo
Text: This evaluation of the ammonium salt finds the drug to be active against L1210 (ip) leukemia when administered ip one day post-implant of 10^6 L1210 cells (maximum T/C was 164%). […] The vehicle for the ammonium salt was water.

[2] = tested on: L1210 Leukemia; experiment: as above; assay type: in vivo; conditions: for Survivors Day 5(30): qd 1→9, in saline
[3] = tested on: L-1210 Leukemia; experiment: L-1210 Leukemia (Table IX); assay type: in vivo, mice
Procedure: The sodium and ammonium salts of the present invention were tested against transplantable mouse tumors as indicated below.

[4] = 2 mg/kg/day ip, qd 1→9, in saline
[5] = 4 mg/kg/day ip, d. 1 only, in H2O
[6] = 4 mg/kg/day ip, d. 1 only, in saline
[7] = 6 mg/kg/day ip, d. 1 only, in H2O
[8] = 6 mg/kg/day ip, d. 1 only, in saline
[9] = 8 mg/kg/day ip, d. 1 only, in H2O
[10] = 8 mg/kg/day ip, d. 1 only, in saline
[11] = 10 mg/kg/day ip, d. 1 only, in H2O
[12] = 10 mg/kg/day ip, d. 1 only, in saline

In the case of `N.N.[Cl][Pt][Cl]` [Cis-DDP, cis-diammine dichloroplatinum (II)], the “Survivors Day 5(30)” value ([1]; 1 mg/kg/day ip, qd 1→9, in saline) is reported as 6/6, the “Average Weight Change” value ([1]; 2 mg/kg/day ip, qd 1→9, in H2O) is reported as −4.0 and the “Effect MST % T/C” value ([1]; 2 mg/kg/day ip, qd 1→9, in H2O) is reported as 86 % T/C. For the same compound, the “MST Days” value ([1]; 2 mg/kg/day ip, qd 1→9, in H2O) was 6.0 days, the “Survivors Day 5(30)” value ([1]; 2 mg/kg/day ip, qd 1→9, in H2O) was 4/6 and the “Average Weight Change” value [1, 4] was −3.3. The “Effect MST % T/C” value [1, 4] was 250 % T/C, the “MST Days” value [1, 4] was 17.5 days and the “Average Weight Change” value [1, 5] was −5.9. For the same compound, the “Effect MST % T/C” value [1, 5] was 100 % T/C, the “MST Days” value [1, 5] was 7.0 days and the “Survivors Day 5(30)” value [1, 5] was 6/6. For the same compound, the “Average Weight Change” value [1, 6] was −0.7, the “Effect MST % T/C” value [1, 6] was 164 % T/C and the “MST Days” value [1, 6] was 11.5 days. The “Survivors Day 5(30)” value [1, 6] was 6/6, the “Average Weight Change” value [1, 7] was “TOX” and the “Effect MST % T/C” value [1, 7] was “TOX”. For the same compound, the “MST Days” value [1, 7] was “TOX”, the “Survivors Day 5(30)” value [1, 7] was 1/6 and the “Effect MST % T/C” value [1, 8] was 186 % T/C. The “MST Days” value [1, 8] was 13.0 days, the “Survivors Day 5(30)” value [1, 8] was 6/6 and the “Average Weight Change” value [1, 9] was “TOX”. For the same compound, the “Effect MST % T/C” value [1, 9] was “TOX”, the “MST Days” value [1, 9] was “TOX” and the “Survivors Day 5(30)” value [1, 9] was 4/6. The “Effect MST % T/C” value [1, 10] was 193 % T/C, the “MST Days” value [1, 10] was 13.5 days and the “Survivors Day 5(30)” value [1, 10] was 6/6. For the same compound, the “Average Weight Change” value [1, 11] was “TOX”, the “Effect MST % T/C” value [1, 11] was “TOX” and the “MST Days” value [1, 11] was “TOX”. The “Survivors Day 5(30)” value [1, 11] was 1/6, the “Average Weight Change” value [1, 12] was −3.6 and the “MST Days” value [1, 12] was 14.5 days. The “Survivors Day 5(30)” value [1, 12] was 6/6, the “Survivors Day 5(30)” value ([2]; 0.5 mg/kg/day ip) was 6/6 and the “Survivors Day 5(30)” value ([2]; 2 mg/kg/day ip) was 6/6. For the same compound, the “Average Weight Change” value [2, 8] was −2.8, the “Average Weight Change” value [2, 10] was −4.1 and the “Effect MST % T/C” value [2, 12] was 207 % T/C. For the same compound, the “Average Weight Change,g” value ([3]; 0.4 mg/kg/inj ip, qd 1→9) was -0.6 g, the “Effect MST % T/C” value ([3]; 0.4 mg/kg/inj ip, qd 1→9) was 108 % T/C and the “MST Days” value ([3]; 0.4 mg/kg/inj ip, qd 1→9) was 7.0 days. The “Survivors Day 5(45)” value ([3]; 0.4 mg/kg/inj ip, qd 1→9) was 6/6, the “Average Weight Change,g” value ([3]; 0.8 mg/kg/inj ip, qd 1→9) was -2.1 g and the “Effect MST % T/C” value ([3]; 0.8 mg/kg/inj ip, qd 1→9) was 138 % T/C. For the same compound, the “MST Days” value ([3]; 0.8 mg/kg/inj ip, qd 1→9) was 9.0 days, the “Survivors Day 5(45)” value ([3]; 0.8 mg/kg/inj ip, qd 1→9) was 6/6 and the “Average Weight Change,g” value ([3]; 1.6 mg/kg/inj ip, qd 1→9) was -2.9 g. The “Effect MST % T/C” value ([3]; 1.6 mg/kg/inj ip, qd 1→9) was 154 % T/C, the “MST Days” value ([3]; 1.6 mg/kg/inj ip, qd 1→9) was 10.0 days and the “Survivors Day 5(45)” value ([3]; 1.6 mg/kg/inj ip, qd 1→9) was 6/6. For the same compound, the “Average Weight Change,g” value ([3]; 2 mg/kg/inj ip, Day 1) was -0.7 g, the “Effect MST % T/C” value ([3]; 2 mg/kg/inj ip, Day 1) was 138 % T/C and the “MST Days” value ([3]; 2 mg/kg/inj ip, Day 1) was 9.0 days. For the same compound, the “Survivors Day 5(45)” value ([3]; 2 mg/kg/inj ip, Day 1) was 6/6, the “Average Weight Change,g” value ([3]; 2.4 mg/kg/inj ip, qd 1→9) was -3.8 g and the “Effect MST % T/C” value ([3]; 2.4 mg/kg/inj ip, qd 1→9) was 177 % T/C. For the same compound, the “MST Days” value ([3]; 2.4 mg/kg/inj ip, qd 1→9) was 11.5 days, the “Survivors Day 5(45)” value ([3]; 2.4 mg/kg/inj ip, qd 1→9) was 6/6 and the “Average Weight Change,g” value ([3]; 4 mg/kg/inj ip, Day 1) was -2.1 g. The “Effect MST % T/C” value ([3]; 4 mg/kg/inj ip, Day 1) was 123 % T/C, the “MST Days” value ([3]; 4 mg/kg/inj ip, Day 1) was 8.0 days and the “Survivors Day 5(45)” value ([3]; 4 mg/kg/inj ip, Day 1) was 6/6. For the same compound, the “Average Weight Change,g” value ([3]; 6 mg/kg/inj ip, Day 1) was -3.7 g, the “Effect MST % T/C” value ([3]; 6 mg/kg/inj ip, Day 1) was 154 % T/C and the “MST Days” value ([3]; 6 mg/kg/inj ip, Day 1) was 10.0 days. For the same compound, the “Survivors Day 5(45)” value ([3]; 6 mg/kg/inj ip, Day 1) was 6/6, the “Average Weight Change,g” value ([3]; 8 mg/kg/inj ip, Day 1) was -3.4 g and the “Effect MST % T/C” value ([3]; 8 mg/kg/inj ip, Day 1) was 185 % T/C. The “MST Days” value ([3]; 8 mg/kg/inj ip, Day 1) was 12.0 days, the “Survivors Day 5(45)” value ([3]; 8 mg/kg/inj ip, Day 1) was 6/6 and the “maximum T/C” value ([3]; qd 1→9 (cis-DDP 2.4, parent 8 and 12, sodium salt 12 mg/kg/injection)) was 177%. For the same compound, the “maximum T/C” value ([3]; single ip injection at maximum tolerated dose (cis-DDP 8 mg/kg, the two others 36 mg/kg)) was 185%.
